Patent publication US11655239B2 (SHANGHAI INSTITUTE OF MATERIAL MEDICA, CHINESE ACADEMY OF …, priority 2019, dated 2023)

How the values were obtained:
Type in all cases: biochemical
[1] = target: DDR2 (Homo sapiens (Human), UniProt Q16832); test: DDR2 enzyme activity test (ELISA); conditions: read-out: DDR2 IC50
Procedure: The optical rotation and the inhibitory activity against DDR2 enzyme of the compounds S11-A and S11-B obtained by the resolution in Example 12, and the chirally synthesized compounds S11-A′ and S11-B′ in Example 13 were tested (referred to the operation in Effect example 1), and the results are shown in Table 3 below:
Detection method: Enzyme-linked immunosorbent assay (ELISA)
Test receptor tyrosine kinase: DDR2
The kinase used in the experiment was obtained by our laboratory using the insect baculovirus expression system to express and purify the recombinant protein containing the protein kinase region; polyglutamic acid-tyrosine peptide segment [Poly(Glu, Tyr) 4:1] and sodium vanadate were purchased from Sigma; the anti-phosphorylated monoclonal antibody PY99 was purchased from Santa Cruz; horseradish peroxidase labeled goat anti-murine secondary antibody was purchased from Calbiochem; ATP and OPD were purchased from Sangon Biotech (Shanghai) Co., Ltd.; the remaining reagents were purchased from Sinopharm Chemical Reagent Co., Ltd. The reaction ELISA plate (#2592) was purchased from Corning. The full-wavelength microplate reader for experiment reading was a product of Molecular Device, model: SpectraMax 190; the experimental water was distilled water produced by Sinopharm Group.
The compound was centrifuged at 12,000 g for 5 min, and DMSO was added to prepare a 10^-2M stock solution, which was vortexed evenly, then sonicated for 10 min and stored at −40° C. for later use. During the test, the compound was diluted with DMSO from the stock solution to 100 times the test concentration (the DMSO concentration in the system was 1%).
(§1) 1) Enzyme reaction substrate Poly(Glu, Tyr) 4:1 was diluted to 20 μg/mL with potassium-free PBS (10 mM sodium phosphate buffer, 150 mM NaCl, pH 7.2-7.4), and the microtiter plate was coated with 125 μL/well and placed at 37° C. for 12-16 hours of reaction. The liquid in the well was discard. The plate was washed three times with T-PBS (potassium-free PBS containing 0.1% Tween-20, 200 μL/well), 5 minutes each time. The ELISA plate was dried in an oven at 37° C. for 1 to 2 hours.
(§2) 2) Reaction buffer (50 mM HEPES pH 7.4, 50 mM MgCl2, 0.5 mM MnCl2, 0.2 mM Na3VO4, 1 mM DTT) diluted ATP solution (49 μL) was added to each well, 1 μL of the compound to be tested was added to each well, and then 50 μL of DDR2 kinase domain recombinant protein diluted in the reaction buffer was added to start the reaction. Two control wells without ATP were set in each experiment. The plate placed on a shaker (100 rpm) at 37° C. for 1 hour of reaction. The liquid in the well was discarded and the plate was washed three times with T-PBS.
(§3) 3) Antibody PY99 dilution solution (the antibody was diluted 1:500 with T-PBS containing BSA 5 mg/mL) was added at 100 μL/well, and shaken on a shaker at 37° C. for 0.5 hour of reaction. The liquid in the well was discarded and the plate was washed three times with T-PBS.
(§4) 4) Horseradish peroxidase labeled goat anti-murine secondary antibody dilution solution (the antibody is diluted 1:2000 with T-PBS containing BSA 5 mg/ml) was added at 100 μL/well, and shaken on a shaker at 37° C. for 0.5 hour of reaction. The liquid in the well was discarded and the plate was washed three times with T-PBS.
(§5) 5) 2 mg/ml of OPD color developing solution [diluted with 0.1 M citric acid-sodium citrate buffer (pH=5.4) containing 0.03% H2O2] was added at 100 μL/well and reacted for 1 to 10 minutes at 25° C. in the dark.
(§6) 6) 2M H2SO4 was added at 50 μL/well to stop the reaction, and a tunable wavelength microplate reader VERSAmax was used for reading at a wavelength of 490 nm.
The IC50 value was obtained by four-parameter regression using the software that came with the microplate reader.

[2] = target: VEGFR-1 (Homo sapiens (Human), UniProt P17948); test: Enzyme selectivity test (ELISA), VEGFR-1
Procedure: as §1, §2, §3, §4, §5, §6
(§7) The IC50 value was obtained by four-parameter regression using the software that came with the microplate reader. […]

[3] = target: PDGFR-α (Homo sapiens (Human), UniProt P16234); test: Enzyme selectivity test (ELISA), PDGFR-α
Procedure: as §1, §2, §3, §4, §5, §6, §7

[4] = target: PDGFR-β (Homo sapiens (Human), UniProt P09619); test: Enzyme selectivity test (ELISA), PDGFR-β
Procedure: as §1, §2, §3, §4, §5, §6, §7

[5] = target: C-Kit (Homo sapiens (Human), UniProt P10721); test: Enzyme selectivity test (ELISA), C-Kit
Procedure: as §1, §2, §3, §4, §5, §6, §7

[6] = target: Flt-3 (Homo sapiens (Human), UniProt P36888); test: Enzyme selectivity test (ELISA), Flt-3
Procedure: as §1, §2, §3, §4, §5, §6, §7

[7] = target: EGFR (Homo sapiens (Human), UniProt P00533); test: Enzyme selectivity test (ELISA), EGFR
Sequence of EGFR (P00533 25-1210, species assumed): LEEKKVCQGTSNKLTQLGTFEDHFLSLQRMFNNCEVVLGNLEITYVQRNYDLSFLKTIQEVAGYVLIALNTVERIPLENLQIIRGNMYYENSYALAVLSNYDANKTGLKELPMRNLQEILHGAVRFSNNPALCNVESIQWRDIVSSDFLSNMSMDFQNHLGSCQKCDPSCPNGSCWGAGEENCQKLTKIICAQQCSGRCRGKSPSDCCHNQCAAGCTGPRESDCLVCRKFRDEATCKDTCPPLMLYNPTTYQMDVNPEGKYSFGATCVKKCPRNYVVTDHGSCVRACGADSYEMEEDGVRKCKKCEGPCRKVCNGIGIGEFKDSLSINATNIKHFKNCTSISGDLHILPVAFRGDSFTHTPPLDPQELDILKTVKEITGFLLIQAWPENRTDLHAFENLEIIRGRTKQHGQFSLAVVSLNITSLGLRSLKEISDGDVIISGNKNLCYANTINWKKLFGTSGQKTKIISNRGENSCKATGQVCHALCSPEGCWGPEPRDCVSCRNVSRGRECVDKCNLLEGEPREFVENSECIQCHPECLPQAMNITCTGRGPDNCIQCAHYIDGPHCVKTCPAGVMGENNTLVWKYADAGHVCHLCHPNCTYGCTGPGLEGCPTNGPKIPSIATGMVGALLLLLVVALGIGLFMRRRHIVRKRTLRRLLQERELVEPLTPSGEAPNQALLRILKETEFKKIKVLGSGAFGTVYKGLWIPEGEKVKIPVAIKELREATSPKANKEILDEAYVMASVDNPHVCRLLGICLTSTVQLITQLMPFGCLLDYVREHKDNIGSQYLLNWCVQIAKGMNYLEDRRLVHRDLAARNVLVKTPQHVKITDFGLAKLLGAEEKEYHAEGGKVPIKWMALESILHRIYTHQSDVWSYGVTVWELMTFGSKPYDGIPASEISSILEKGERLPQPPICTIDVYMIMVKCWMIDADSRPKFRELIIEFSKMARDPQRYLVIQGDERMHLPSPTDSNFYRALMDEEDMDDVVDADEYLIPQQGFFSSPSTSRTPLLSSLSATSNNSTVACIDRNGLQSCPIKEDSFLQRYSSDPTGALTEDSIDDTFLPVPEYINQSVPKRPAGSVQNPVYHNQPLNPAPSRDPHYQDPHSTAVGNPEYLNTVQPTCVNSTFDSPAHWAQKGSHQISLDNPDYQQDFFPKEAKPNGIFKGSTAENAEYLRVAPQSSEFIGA
Procedure: as §1, §2, §3, §4, §5, §6, §7

[8] = target: ErbB2 (Homo sapiens (Human), UniProt P04626); test: Enzyme selectivity test (ELISA), ErbB2
Procedure: as §1, §2, §3, §4, §5, §6, §7

[9] = target: ErbB4 (Homo sapiens (Human), UniProt Q15303); test: Enzyme selectivity test (ELISA), ErbB4
Procedure: as §1, §2, §3, §4, §5, §6, §7

[10] = target: Src (Homo sapiens (Human), UniProt P12931); test: Enzyme selectivity test (ELISA), Src
Sequence of Src (P12931 whole entry, looked up, species assumed): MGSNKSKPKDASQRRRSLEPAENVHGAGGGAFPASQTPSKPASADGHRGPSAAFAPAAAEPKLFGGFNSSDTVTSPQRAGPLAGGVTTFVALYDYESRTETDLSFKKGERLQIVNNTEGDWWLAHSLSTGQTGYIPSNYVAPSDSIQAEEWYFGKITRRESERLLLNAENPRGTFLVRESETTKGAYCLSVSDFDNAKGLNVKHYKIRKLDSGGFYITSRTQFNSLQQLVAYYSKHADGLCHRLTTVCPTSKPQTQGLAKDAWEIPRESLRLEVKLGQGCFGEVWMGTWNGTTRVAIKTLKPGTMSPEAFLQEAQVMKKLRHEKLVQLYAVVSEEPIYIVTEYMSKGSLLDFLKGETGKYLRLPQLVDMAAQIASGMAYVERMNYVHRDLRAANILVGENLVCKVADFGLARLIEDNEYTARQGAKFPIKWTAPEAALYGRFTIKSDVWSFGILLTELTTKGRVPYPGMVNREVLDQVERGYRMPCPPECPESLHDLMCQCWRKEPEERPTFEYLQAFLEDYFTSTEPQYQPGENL
Procedure: as §1, §2, §3, §4, §5, §6, §7

[11] = target: Abl (Homo sapiens (Human), UniProt P00519); test: Enzyme selectivity test (ELISA), Abl
Procedure: as §1, §2, §3, §4, §5, §6, §7

[12] = target: EPH-A2 (Homo sapiens (Human), UniProt P29317); test: Enzyme selectivity test (ELISA), EPH-A2
Procedure: as §1, §2, §3, §4, §5, §6, §7

[13] = target: IGF-1R (Homo sapiens (Human), UniProt P08069); test: Enzyme selectivity test (ELISA), IGF-1R
Procedure: as §1, §2, §3, §4, §5, §6, §7

[14] = target: AXL (Homo sapiens (Human), UniProt P30530); test: Enzyme selectivity test (ELISA), AXL
Procedure: as §1, §2, §3, §4, §5, §6, §7

[15] = target: Met (Homo sapiens (Human), UniProt P08581); test: Enzyme selectivity test (ELISA), Met
Procedure: as §1, §2, §3, §4, §5, §6, §7

[16] = target: ALK (Homo sapiens (Human), UniProt Q9UM73); test: Enzyme selectivity test (ELISA), ALK
Sequence of ALK (Q9UM73 19-1620, species assumed): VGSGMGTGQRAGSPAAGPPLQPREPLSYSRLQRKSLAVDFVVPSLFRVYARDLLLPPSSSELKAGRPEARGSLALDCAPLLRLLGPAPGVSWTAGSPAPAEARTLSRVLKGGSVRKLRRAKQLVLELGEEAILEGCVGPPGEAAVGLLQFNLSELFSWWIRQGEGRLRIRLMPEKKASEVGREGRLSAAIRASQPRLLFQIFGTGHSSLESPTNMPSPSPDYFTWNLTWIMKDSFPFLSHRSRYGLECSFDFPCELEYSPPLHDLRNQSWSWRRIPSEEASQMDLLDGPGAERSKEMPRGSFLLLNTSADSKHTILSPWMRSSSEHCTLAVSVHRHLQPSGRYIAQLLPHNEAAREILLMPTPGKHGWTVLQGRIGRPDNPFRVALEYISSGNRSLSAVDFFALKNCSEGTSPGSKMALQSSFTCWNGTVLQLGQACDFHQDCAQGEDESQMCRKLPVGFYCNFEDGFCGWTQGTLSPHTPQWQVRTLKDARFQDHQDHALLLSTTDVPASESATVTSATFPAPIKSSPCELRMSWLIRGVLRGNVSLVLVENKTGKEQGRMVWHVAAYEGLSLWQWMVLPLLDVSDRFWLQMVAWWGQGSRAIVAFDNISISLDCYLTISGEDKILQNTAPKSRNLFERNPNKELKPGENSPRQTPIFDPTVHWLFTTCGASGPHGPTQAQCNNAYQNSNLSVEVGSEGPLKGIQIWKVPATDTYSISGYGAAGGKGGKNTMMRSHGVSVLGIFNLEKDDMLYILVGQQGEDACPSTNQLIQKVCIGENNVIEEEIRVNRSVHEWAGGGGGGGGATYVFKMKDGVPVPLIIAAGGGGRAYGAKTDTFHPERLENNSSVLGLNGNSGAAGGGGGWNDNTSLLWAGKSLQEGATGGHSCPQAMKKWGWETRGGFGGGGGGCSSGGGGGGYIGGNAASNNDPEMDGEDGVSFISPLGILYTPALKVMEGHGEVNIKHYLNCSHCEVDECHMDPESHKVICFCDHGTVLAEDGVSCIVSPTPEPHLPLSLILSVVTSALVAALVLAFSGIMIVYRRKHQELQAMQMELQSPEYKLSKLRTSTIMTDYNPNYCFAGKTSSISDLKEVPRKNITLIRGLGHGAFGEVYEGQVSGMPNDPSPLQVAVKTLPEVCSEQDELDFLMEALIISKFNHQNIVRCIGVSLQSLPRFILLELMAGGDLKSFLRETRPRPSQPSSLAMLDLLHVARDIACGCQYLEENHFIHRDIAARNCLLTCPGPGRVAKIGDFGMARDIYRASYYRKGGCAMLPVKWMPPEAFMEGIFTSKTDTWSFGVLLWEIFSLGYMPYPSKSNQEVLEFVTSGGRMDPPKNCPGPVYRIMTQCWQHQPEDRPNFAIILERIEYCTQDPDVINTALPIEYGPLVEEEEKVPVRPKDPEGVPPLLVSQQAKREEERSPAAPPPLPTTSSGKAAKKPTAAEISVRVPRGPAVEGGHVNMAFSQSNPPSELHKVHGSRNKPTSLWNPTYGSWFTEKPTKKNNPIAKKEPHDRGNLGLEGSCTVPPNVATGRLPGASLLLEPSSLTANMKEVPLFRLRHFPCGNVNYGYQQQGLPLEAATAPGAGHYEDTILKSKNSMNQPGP
Procedure: as §1, §2, §3, §4, §5, §6, §7

[17] = target: RET (Homo sapiens (Human), UniProt P07949); test: Enzyme selectivity test (ELISA), RET
Procedure: as §1, §2, §3, §4, §5, §6, §7

[18] = target: FGFR-1 (Homo sapiens (Human), UniProt P11362); test: Enzyme selectivity test (ELISA), FGFR-1
Procedure: as §1, §2, §3, §4, §5, §6, §7

[19] = target: FGFR-2 (Homo sapiens (Human), UniProt P21802); test: Enzyme selectivity test (ELISA), FGFR-2
Procedure: as §1
as §2, with “T-PBS. […]” for “T-PBS.”
as §6, §7

[20] = target: FGFR-3 (Homo sapiens (Human), UniProt P22607); test: Enzyme selectivity test (ELISA), FGFR-3
Procedure: as §1
as §2, with “T-PBS. […]” for “T-PBS.”
as §6, §7

[21] = target: FGFR-4 (Homo sapiens (Human), UniProt P22455); test: Enzyme selectivity test (ELISA), FGFR-4
Procedure: as §1
as §2, with “T-PBS. […]” for “T-PBS.”
as §6, §7

[22] = target: KDR (Homo sapiens (Human), UniProt P35968); test: Enzyme selectivity test (ELISA), KDR
Sequence of KDR (P35968 20-1356, species assumed): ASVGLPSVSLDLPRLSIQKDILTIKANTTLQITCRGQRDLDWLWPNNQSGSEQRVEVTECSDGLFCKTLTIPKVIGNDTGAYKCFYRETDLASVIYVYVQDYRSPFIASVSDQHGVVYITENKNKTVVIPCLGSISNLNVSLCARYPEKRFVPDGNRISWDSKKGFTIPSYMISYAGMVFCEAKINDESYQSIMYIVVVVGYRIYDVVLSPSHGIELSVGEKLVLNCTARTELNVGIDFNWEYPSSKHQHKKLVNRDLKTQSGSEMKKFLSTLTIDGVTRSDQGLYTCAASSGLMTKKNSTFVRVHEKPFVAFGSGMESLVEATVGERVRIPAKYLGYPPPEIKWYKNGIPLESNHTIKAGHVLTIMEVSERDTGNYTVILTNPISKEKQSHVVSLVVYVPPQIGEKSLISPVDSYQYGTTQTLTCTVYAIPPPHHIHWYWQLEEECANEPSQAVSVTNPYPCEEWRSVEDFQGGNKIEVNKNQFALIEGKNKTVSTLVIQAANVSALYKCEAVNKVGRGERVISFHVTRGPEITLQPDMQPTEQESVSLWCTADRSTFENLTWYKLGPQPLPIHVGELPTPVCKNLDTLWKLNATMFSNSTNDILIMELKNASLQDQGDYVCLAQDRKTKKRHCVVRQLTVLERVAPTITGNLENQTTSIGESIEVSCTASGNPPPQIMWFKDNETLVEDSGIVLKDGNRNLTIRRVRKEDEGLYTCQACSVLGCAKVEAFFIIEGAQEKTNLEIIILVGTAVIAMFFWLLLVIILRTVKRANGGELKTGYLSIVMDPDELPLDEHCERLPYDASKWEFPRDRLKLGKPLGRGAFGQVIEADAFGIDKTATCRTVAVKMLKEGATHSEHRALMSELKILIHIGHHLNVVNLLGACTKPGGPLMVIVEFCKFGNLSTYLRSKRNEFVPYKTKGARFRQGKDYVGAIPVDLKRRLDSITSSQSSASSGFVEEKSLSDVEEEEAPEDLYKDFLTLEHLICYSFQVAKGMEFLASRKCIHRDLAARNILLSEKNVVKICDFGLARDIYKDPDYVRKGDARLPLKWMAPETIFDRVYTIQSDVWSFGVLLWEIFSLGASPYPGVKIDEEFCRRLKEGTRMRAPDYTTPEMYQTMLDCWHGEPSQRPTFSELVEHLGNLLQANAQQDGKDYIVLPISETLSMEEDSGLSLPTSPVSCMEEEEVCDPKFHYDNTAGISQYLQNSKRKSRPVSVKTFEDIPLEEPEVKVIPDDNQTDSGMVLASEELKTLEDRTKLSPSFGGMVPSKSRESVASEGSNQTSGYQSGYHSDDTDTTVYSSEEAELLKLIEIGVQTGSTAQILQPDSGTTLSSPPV
Procedure: as §1, §2, §3, §4, §5, §6, §7

[23] = test system: kinases; test: Enzyme selectivity test, kinase panel overall; conditions: kinase panel of Table 5
Source text: Except that the enzyme was different, other test methods and conditions were the same as the DDR2 enzyme activity test method in Effect example 1.

Sequence of DDR2 (Q16832 563-849): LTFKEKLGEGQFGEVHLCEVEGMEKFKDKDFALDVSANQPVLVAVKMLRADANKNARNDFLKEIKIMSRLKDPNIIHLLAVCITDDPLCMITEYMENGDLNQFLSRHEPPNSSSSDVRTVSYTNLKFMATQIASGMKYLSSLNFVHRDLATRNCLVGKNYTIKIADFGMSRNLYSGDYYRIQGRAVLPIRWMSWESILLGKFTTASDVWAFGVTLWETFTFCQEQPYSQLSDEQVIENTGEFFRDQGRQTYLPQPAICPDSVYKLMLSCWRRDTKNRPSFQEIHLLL

With CC(NC(=O)c1ccc(C2CC2)c(-c2ccc3nc(Nc4cnn(C5CC5)c4)ncc3c2)c1)c1cccc(C(F)(F)F)c1 (centres unmarked) [Compound S16, 4-cyclopropyl-3-(2-((1-cyclopropyl-1H-pyrazol-4-yl)amino)quinazolin-6-yl)-N-(1-(3-(trifluoromethyl)phenyl)ethyl)benzamide] the IC50 [1] was 0.0383 ± 0.0028 µM, the IC50 [2] was over 1 µM and the IC50 [3] was over 1 µM. It also gave an IC50 [4] of over 1 µM, an IC50 [5] of over 1 µM and an IC50 [6] of over 1 µM. It also gave an IC50 [7] of over 1 µM, an IC50 [8] of over 1 µM and an IC50 [9] of over 1 µM. For the same compound, the IC50 [10] was over 1 µM, the IC50 [11] was over 1 µM and the IC50 [12] was over 1 µM. For the same compound, the IC50 [13] was over 1 µM, the IC50 [14] was over 1 µM and the IC50 [15] was over 1 µM. For the same compound, the IC50 [16] was over 1 µM, the IC50 [17] was over 1 µM and the IC50 [18] was over 1 µM. It also gave an IC50 [19] of over 1 µM, an IC50 [20] of over 1 µM and an IC50 [21] of over 1 µM. For the same compound, the IC50 [22] was over 1 µM and the selectivity for kinases [23] was “good selectivity”.
